Source: PMC10006169, “A phase I trial of LXS196, a protein kinase C (PKC) inhibitor, for metastatic uveal melanoma” (British Journal of Cancer, 2023)
Values joined by “and” are separate entries in the source; they are usually repeats but may differ in a detail not shown here. Equal values may be shown once.

Columns and labels:
MARCKS (pMARCKS) = test: pMARCKS in tumour biopsies (Meso Scale Discovery); format: in vivo, human; conditions: QD schedule
Description: Fresh metastatic tumour biopsies were collected at baseline (prior to first dose) and on treatment at C1D15 to evaluate the modulation of PKC substrate proteins in tumours following exposure to LXS196 and to perform exploratory transcriptome and targeted DNA sequencing. Whole blood samples (peripheral blood mononuclear cells; PBMCs) were collected pre-dose on C1D1 and D15, and at various time points post-dose on C1D1, D2, D3, D15 and D16 to evaluate the modulation of PKC substrate proteins in a surrogate tissue. Owing to the exploratory nature of this phase I study, formal statistical tests were not planned to be performed. Data are presented using descriptive statistics and visualisations. Continuous variables are described with the mean and range. […]
Custom assays were developed to measure the status of the PKC pathway. In brief, tumour tissue was homogenised in lysis buffer, and total protein concentrations were determined using a bicinchoninic acid (BCA) assay (Pierce). […] Total and phosphorylated PKCdelta (PKCd; pPKCd, phosphorylated at S299) levels were determined using microcapillary electrophoresis on the Sally Sue platform (Protein Simple, San Jose, CA, USA). Area under the peaks corresponding to the target was measured and used for further calculation. […]
Total and phosphorylated MARCKS were measured in all feasible tumour biopsies. […] The normalised MARCKS is calculated as follows: […]

92.1 human UM xenograft = tested on: 92.1 human UM xenograft; parameters: method as in PMID 27507190; conditions: doses below MTD; cited from earlier work
[1] = tested on: metastatic uveal melanoma (MUM); test: Tumour response (RECIST v1.1) and progression-free survival; format: in vivo, human
Protocol: Tumour response was assessed locally by computed tomography (CT) and/or magnetic resonance imaging (MRI) of the chest, abdomen and pelvis, according to Response Evaluation Criteria in Solid Tumours (RECIST) v1.1 at baseline, on C3D1 and every two cycles thereafter until cycle 11. After 11 cycles of treatment, response was evaluated every three cycles until the end of treatment. Fresh metastatic tumour biopsies were collected at baseline (prior to first dose) and on treatment at C1D15 to evaluate the modulation of PKC substrate proteins in tumours following exposure to LXS196 and to perform exploratory transcriptome and targeted DNA sequencing. Whole blood samples (peripheral blood mononuclear cells; PBMCs) were collected pre-dose on C1D1 and D15, and at various time points post-dose on C1D1, D2, D3, D15 and D16 to evaluate the modulation of PKC substrate proteins in a surrogate tissue. Owing to the exploratory nature of this phase I study, formal statistical tests were not planned to be performed. Data are presented using descriptive statistics and visualisations. Continuous variables are described with the mean and range. Categorical variables are described using counts and percentages. PFS is described using the Kaplan–Meier (KM) method.

CC1(N)CCN(c2cccnc2NC(=O)c2nc(-c3ncccc3C(F)(F)F)cnc2N)CC1 [LXS196]
pMARCKS, mean (range) percentage change from baseline to C1D15 (normalised ratio) (MARCKS (pMARCKS)): −39.7 (−89.7, 199) %
Tumour effect as single agent (92.1 human UM xenograft): tumour regression
BOR: complete response (CR) ([1]; 300 mg BID (RDE) n=18): 0 n (%)
BOR: partial response (PR) ([1]; 300 mg BID (RDE) n=18): 2 (11.1%) n (%) and 2 (11.1) n (%)
BOR: progressive disease (PD) ([1]; 300 mg BID (RDE) n=18): 3 (16.7) n (%)
BOR: unknown ([1]; 300 mg BID (RDE) n=18): 1 (5.6) n (%)
Kaplan–Meier PFS rate (95% CI) at 4 months ([1]; 300 mg BID (RDE) n=18): 44.4 (21.6–65.1) %
Kaplan–Meier PFS rate (95% CI) at 6 months ([1]; 300 mg BID (RDE) n=18): 27.8 (10.1–48.9) %
Kaplan–Meier PFS rate (95% CI) at 12 months ([1]; 300 mg BID (RDE) n=18): 22.2 (6.9–42.9) %
Number of PFS events ([1]; 300 mg BID (RDE) n=18): 18 (100) n (%)
PFS 25th percentile (95% CI) ([1]; 300 mg BID (RDE) n=18): 2.1 (0.8–3.6) months
PFS 50th percentile, median PFS (95% CI) ([1]; 300 mg BID (RDE) n=18): 3.7 (2.1–5.4) months
PFS 75th percentile (95% CI) ([1]; 300 mg BID (RDE) n=18): 7.2 (3.7–25.8) months
PFS events: deaths ([1]; 300 mg BID (RDE) n=18): 1 (5.6) n (%)
PFS events: progression ([1]; 300 mg BID (RDE) n=18): 17 (94.4) n (%)
BOR: complete response (CR) ([1]; All BID n=30): 1 n (%) and 1 (3.3) n (%)
BOR: partial response (PR) ([1]; All BID n=30): 3 n (%) and 3 (10.0) n (%)
BOR: progressive disease (PD) ([1]; All BID n=30): 6 (20.0) n (%)
BOR: unknown ([1]; All BID n=30): 2 (6.7) n (%)
Kaplan–Meier PFS rate (95% CI) at 4 months ([1]; All BID n=30): 50.0 (31.3–66.1) %
Kaplan–Meier PFS rate (95% CI) at 6 months ([1]; All BID n=30): 33.3 (17.5–50.0) %
Kaplan–Meier PFS rate (95% CI) at 12 months ([1]; All BID n=30): 26.7 (12.6–43.0) %
Number of PFS events ([1]; All BID n=30): 30 (100) n (%)
Overall response rate (ORR: CR + PR) ([1]; All BID n=30): 4 (13.3%) n (%) [95% CI]
PFS 25th percentile (95% CI) ([1]; All BID n=30): 1.9 (1.6–3.6) months
PFS 50th percentile, median PFS (95% CI) ([1]; All BID n=30): 4.1 (3.5–7.2) months
PFS 75th percentile (95% CI) ([1]; All BID n=30): 12.9 (5.4–25.8) months
PFS events: deaths ([1]; All BID n=30): 2 (6.7) n (%)
PFS events: progression ([1]; All BID n=30): 28 (93.3) n (%)
BOR: complete response (CR) ([1]; All QD n=38): 0 n (%)
BOR: partial response (PR) ([1]; All QD n=38): 2 n (%) and 2 (5.3) n (%)
BOR: progressive disease (PD) ([1]; All QD n=38): 9 (23.7) n (%)
BOR: unknown ([1]; All QD n=38): 0 n (%)
Kaplan–Meier PFS rate (95% CI) at 4 months ([1]; All QD n=38): 36.8 (22.0–51.8) %
Kaplan–Meier PFS rate (95% CI) at 6 months ([1]; All QD n=38): 26.3 (13.7–40.8) %
Kaplan–Meier PFS rate (95% CI) at 12 months ([1]; All QD n=38): 0.0 (NE–NE) %
Number of PFS events ([1]; All QD n=38): 38 (100.0) n (%)
PFS 25th percentile (95% CI) ([1]; All QD n=38): 3.4 (1.7–3.5) months
PFS 50th percentile, median PFS (95% CI) ([1]; All QD n=38): 3.5 (3.5–5.4) months
PFS 75th percentile (95% CI) ([1]; All QD n=38): 6.0 (3.6–7.3) months
PFS events: deaths ([1]; All QD n=38): 0 (0.0) n (%)
PFS events: progression ([1]; All QD n=38): 38 (100.0) n (%)
BOR: complete response (CR) ([1]; All patients N=68): 1 (1.5) n (%)
BOR: partial response (PR) ([1]; All patients N=68): 5 n (%) and 5 (7.4) n (%)
BOR: progressive disease (PD) ([1]; All patients N=68): 15 (22.1) n (%)
BOR: unknown ([1]; All patients N=68): 2 (2.9) n (%)
Kaplan–Meier PFS rate (95% CI) at 4 months ([1]; All patients N=68): 42.6 (30.8–54.0) %
Kaplan–Meier PFS rate (95% CI) at 6 months ([1]; All patients N=68): 29.4%
Kaplan–Meier PFS rate (95% CI) at 12 months ([1]; All patients N=68): 11.8 (5.5–20.6) %
Number of PFS events ([1]; All patients N=68): 68 (100) n (%)
Overall response rate (ORR: CR + PR) ([1]; All patients N=68): 8.8 n (%) [95% CI]
PFS 25th percentile (95% CI) ([1]; All patients N=68): 2.0 (1.7–3.5) months
PFS 50th percentile, median PFS (95% CI) ([1]; All patients N=68): 3.6 (3.5–5.4) months
PFS 75th percentile (95% CI) ([1]; All patients N=68): 7.2 (5.4–9.4) months
PFS events: deaths ([1]; All patients N=68): 2 n (%) and 2 (2.9) n (%)
PFS events: progression ([1]; All patients N=68): 66 n (%) and 66 (97.1) n (%)
Stable disease (SD) in evaluable patients ([1]; RECIST v1.1, all doses): 45/66
Median duration of SD ([1]; n=45, range 2.07–30.23): 5.32 months
Median duration of response ([1]; patients with RECIST response n=6, range 2.99–41.95): 10.15 months and 10 months
